US4005076A, “Hydrazones of 3-formylrifamycin SV” (Gruppo Lepetit S.p.A., priority 1971, dated 1977)
≈ marks a conversion by molar mass, not a printed value. Where two headings read alike, the source gives them in different places.

Experiments:
[1] = target: T1, RNA-dependent DNA polymerase of murine sarcoma virus (Moloney murine leukemia virus, UniProt P03355); experiment: inhibition of RNA-dependent DNA polymerase of murine sarcoma virus (3H-dTTP incorporation); assay type: biochemical; conditions: at a concentration of 2-100 μg/ml or less; 60 min
T1 construct: The virion polymerase was purified 20-40 fold; made in house; host or cells: virions from MSV (Moloney) transformed rat 78A1 cells and MSV (Harvey) transformed mouse MEH cells; disrupted virus or polymerase purified 20-40 fold
Procedure: The inhibiting activity of the inventive compounds has been tested on RNA-dependent DNA polymerase of murine sarcoma virus (endogenous) and RNA-dependent DNA polymerase activity of purified enzymes. The inhibition was tested according to the methods described by C. Gurgo et al., Nature, New Biology, 229, 111, 1971. The effect of different concentrations of drugs on polymerase activity was determined by following ^3 H-dTTP (tritiated thymine deoxyriboside triphosphate) incorporation into the insoluble fraction. A typical example of the experimental procedures is the following.
Virus was isolated and purified from murine sarcoma virus (Moloney isolate) transformed rat cells (78Al cells) and murine sarcoma virus (Harvey isolate) transformed mouse cells (MEH cells) as previously described (Green et al., Proc. Nat. Acad. Sci. USA 67, 385-393, 1970, Rokutanda et al., Nature, 227, 1026-1028, 1970). The virion polymerase was purified 20-40 fold by incubation of purified virus with 0.5% NP-40 (nonidet P-40) in 0.1 M NaCl, 0.01 M Tris buffer (pH 7.6), 0.001 M EDTA for 5 minutes at room temperature and zonal centrifugation in 15-30% sucrose gradients in 10 mM sodium phosphate buffer (pH 7.4), 2.5 mM MgCl2, 10 mM dithiothreitol, and 5% glycerol for 24 hours at 38,000 rpm in a Spinco SW41 rotor. The peak fractions of enzyme activity (13-17) of 22 fractions collected, were pooled and stored at -70° C. in 30% glycerol.
Enzyme incubation was performed for 1 hour at 37° C. in 100 μl of reaction mixture containing 40 mM Tris buffer (pH 8.0), 5 mM dithiothreitol, 30 mM NaCl, 2.5 mM MgCl2, 0.1 mM dATP, dGTP, dCTP, and 10 μCi of ^3 H-dTTP (12-18 Ci/mmole) as described by Green et al. in Proc. Nat. Acad. Sci. USA 67, 385-393, 1970. The reaction was terminated by the addition of 150 μl of 1N perchloric acid. Calf thymus DNA (100 μg) was added as carrier; the radioactive DNA product was processed as described in the two papers mentioned above. Endogenous RNA-dependent DNA-polymerase activity was measured after the addition of 0.01% NP-40 to purified virus at the time of assay. The DNA-polymerase activity of purified viral polymerase was measured with 2 μg of poly d (A-T) as template and no NP-40.
Rifamycin derivatives of this invention were dissolved in dimethylsulfoxide (DMSO) at a concentration of 5 mg/ml and stored at 4° C. Inhibition of the endogenous RNA-dependent DNA-polymerase activity was tested by adding 2 μl of derivative appropriately diluted in DMSO or 2 μl of DMSO (control) to the assay mixture prior to addition to disrupted virus which contained 15 to 30 μg of viral protein. Enzyme incubation was performed for 60 minutes at 37° C. Inhibition of purified enzyme was tested by pre-incubation of 2 μl of derivative or DMSO with 30 μl of enzyme (1 to 2 μg of protein) for 10 minutes at 37° C.; then 70 μl of substrate mixture were added and the mixture further incubated and processed as described above.

[2] = tested on: Staphylococcus aureus strain which is resistant to rifampicin (Staph. aureus Tour); experiment: in vitro minimal inhibitory concentration against rifampicin-resistant Staphylococcus aureus strain; assay type: cell-based; conditions: for MIC: Staphylococcus aureus, read-out: Minimal inhibitory concentration
Procedure: In particular, compounds illustrative of the invention at concentrations of about 10 to 20 μg/ml or less inhibit the growth of a Staph. aureus Tour strain resistant to rifampicin.
One of the most important characteristics of the new hydrazones is their activity against rifampicin-resistant Staphylococcus aureus strains. Rifampicin, that is 3-(4-methyl-1-piperazinyl)iminomethylrifamycin SV, disclosed in U.S. Pat. No. 3,342,810, is the most known and widely used rifamycin derivative in therapeutic practice.
The data of the new compounds are compared with those of representative hydrazones disclosed in U.S. Pat. No. 3,342,810.

[3] = tested on: mouse embryo DNA-polymerase II (ME-DNA-P2); experiment: effect on mouse embryo DNA-polymerase II; assay type: biochemical; conditions: activated Calf-Thymus DNA
Excerpt: (§1) Oligo dT.Poly rA. ME-DNA-P1 and ME-DNA-p2 : activated

[4] = tested on: mouse embryo DNA-polymerase I (ME-DNA-P1); experiment: effect on mouse embryo DNA-polymerase I; assay type: biochemical; conditions: activated Calf-Thymus DNA
Excerpt: as §1

[5] = target: T2, mouse embryo RNA-polymerase I (ME-RNA-P1) (Mus musculus, UniProt O35134+P70700); experiment: effect on mouse embryo RNA-polymerase I; assay type: biochemical; conditions: for remaining activity at 10 µg: read-out: % Control Activity of ME-RNA-P1 at 10μg; for remaining activity at 100 µg: read-out: % Control Activity of ME-RNA-P1 at 100μg
T2 construct: mouse embryo RNA-polymerase I (ME-RNA-P1); endogenous in cells; host or cells: mouse embryo cells
Excerpt: (§2) Calf-Thymus DNA. Me-RNA-P1 and ME-RNA-P2 : Single Stranded

[6] = target: T3, mouse embryo RNA-polymerase II (ME-RNA-P2) (Mus musculus, UniProt P08775+Q8CFI7); experiment: effect on mouse embryo RNA-polymerase II; assay type: biochemical; conditions: for remaining activity at 10 µg: read-out: % Control Activity of ME-RNA-P2 at 10μg; for remaining activity at 100 µg: read-out: % Control Activity of ME-RNA-P2 at 100μg
T3 construct: mouse embryo RNA-polymerase II (ME-RNA-P2); endogenous in cells; host or cells: mouse embryo cells
Excerpt: as §2

[7] = target: T4, sarcoma virus DNA-polymerases (SSV-DNA-P) (Woolly monkey sarcoma virus, UniProt P03359); experiment: effect on activity of SSV-polymerase; assay type: biochemical
T4 construct: sarcoma virus DNA-polymerases (SSV-DNA-P)
T4 sequence (P03359 642-1310): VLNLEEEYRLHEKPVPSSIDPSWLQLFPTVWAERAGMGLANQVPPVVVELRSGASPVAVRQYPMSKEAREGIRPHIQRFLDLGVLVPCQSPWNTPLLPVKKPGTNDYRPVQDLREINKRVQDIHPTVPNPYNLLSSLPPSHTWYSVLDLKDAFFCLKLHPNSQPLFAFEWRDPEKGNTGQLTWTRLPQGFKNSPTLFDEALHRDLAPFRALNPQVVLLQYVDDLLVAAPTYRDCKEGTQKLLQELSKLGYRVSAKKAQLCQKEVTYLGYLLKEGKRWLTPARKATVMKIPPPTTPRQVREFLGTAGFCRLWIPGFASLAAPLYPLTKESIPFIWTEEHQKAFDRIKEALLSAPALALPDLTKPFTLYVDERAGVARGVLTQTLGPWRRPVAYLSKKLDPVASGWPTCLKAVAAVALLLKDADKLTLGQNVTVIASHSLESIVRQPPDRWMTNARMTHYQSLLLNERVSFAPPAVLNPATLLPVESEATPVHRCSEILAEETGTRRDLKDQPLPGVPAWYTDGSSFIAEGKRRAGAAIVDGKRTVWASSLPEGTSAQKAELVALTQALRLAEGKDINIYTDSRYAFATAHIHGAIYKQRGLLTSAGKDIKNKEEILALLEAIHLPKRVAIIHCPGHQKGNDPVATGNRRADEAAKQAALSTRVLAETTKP
Excerpt: Templates used in the Enzymatic Assays were the following: SSV-DNA-P: […]

[8] = 10μg, Single Stranded Calf-Thymus DNA
[9] = 100μg, Single Stranded Calf-Thymus DNA
[10] = 10μg, template Oligo dT.Poly rA
[11] = 100μg, template Oligo dT.Poly rA

In the case of `COC1C=COC2(C)Oc3c(C)c(O)c4c(O)c(c(C=NN(c5ccccc5)c5ccccc5)c(O)c4c3C2=O)NC(=O)C(C)=CC=CC(C)C(O)C(C)C(O)C(C)C(OC(C)=O)C1C` (centres unmarked) [Example 11], the “incorporation of H3-dTTP relative to that found in the control tests” value [1] is reported as “less than 10%” and the MIC [2] is reported as 2 µg/mL (≈ 2.24 µM).

For `COC1C=COC2(C)Oc3c(C)c(O)c4c(O)c(c(C=NNC5CCCCCC5)c(O)c4c3C2=O)NC(=O)C(C)=CC=CC(C)C(O)C(C)C(O)C(C)C(OC(C)=O)C1C` (centres unmarked) [Example 13], the “incorporation of H3-dTTP relative to that found in the control tests” value [1] was “less than 10%” and the MIC [2] was 10 µg/mL (≈ 12 µM).

For `COC1C=COC2(C)Oc3c(C)c(O)c4c(O)c(c(C=NNC5CCCCCCC5)c(O)c4c3C2=O)NC(=O)C(C)=CC=CC(C)C(O)C(C)C(O)C(C)C(OC(C)=O)C1C` (centres unmarked) [Example 14], the “incorporation of H3-dTTP relative to that found in the control tests” value [1] was “less than 10%” and the MIC [2] was 5 µg/mL (≈ 5.88 µM).

In the case of `COC1C=COC2(C)Oc3c(C)c(O)c4c(O)c(c(C=NN(Cc5ccccc5)c5ccccc5)c(O)c4c3C2=O)NC(=O)C(C)=CC=CC(C)C(O)C(C)C(O)C(C)C(OC(C)=O)C1C` (centres unmarked) [Example 15], the “incorporation of H3-dTTP relative to that found in the control tests” value [1] is reported as “less than 10%” and the MIC [2] is reported as 2 µg/mL (≈ 2.21 µM).

`COC1C=COC2(C)Oc3c(C)c(O)c4c(O)c(c(C=NN5CCN(C)CC5)c(O)c4c3C2=O)NC(=O)C(C)=CC=CC(C)C(O)C(C)C(O)C(C)C(OC(C)=O)C1C` (centres unmarked) [Rifampicin, 3-(4-methyl-1-piperazinyl)iminomethylrifamycin SV] was tested, and the “% Control Activity of ME-DNA-P2 at 10μg” value [3] was 96%, the “% Control Activity of ME-DNA-P2 at 100μg” value [3] was 16% and the “% Control Activity of ME-DNA-P1 at 10μg” value [4] was 99%. For the same compound, the “% Control Activity of ME-DNA-P1 at 100μg” value [4] was 56%, the remaining activity at 10 µg [5] was 77.7% and the remaining activity at 100 µg [5] was 86%. For the same compound, the remaining activity at 10 µg [6] was 81%, the remaining activity at 100 µg [6] was 99% and the “% Control Activity of SSV-DNA-P at 5μg” value [7] was 94%. The “% Control Activity of SSV-DNA-P at 10μg” value [7] was 97%, the “% Control Activity of SSV-DNA-P at 100μg” value [7] was 96% and the MIC [2] was > 100 µg/mL. For the same compound, the Minimal inhibitory concentration ([2]; in vitro, Staphylococcus aureus strain resistant to rifampicin) was > 100 µg/mL.

With `COC1C=COC2(C)Oc3c(C)c(O)c4c(O)c(cc(OCC(=O)O)c4c3C2=O)NC(=O)C(C)=CC=CC(C)C(O)C(C)C(O)C(C)C(OC(C)=O)C1C` (centres unmarked) [rifamycin B] the “% Control Activity of ME-DNA-P2 at 10μg” value [3] was 46%, the “% Control Activity of ME-DNA-P2 at 100μg” value [3] was 4% and the “% Control Activity of ME-DNA-P1 at 10μg” value [4] was 103%. For the same compound, the “% Control Activity of ME-DNA-P1 at 100μg” value [4] was 81%, the remaining activity at 10 µg [5, 8] was 76% and the remaining activity at 100 µg [5, 9] was 85%. The remaining activity at 10 µg [6, 8] was 102%, the remaining activity at 100 µg [6, 9] was 95% and the “% Control Activity of SSV-DNA-P at 5μg” value ([7]; 5μg, template Oligo dT.Poly rA) was 96%. For the same compound, the “% Control Activity of SSV-DNA-P at 10μg” value [7, 10] was 104% and the “% Control Activity of SSV-DNA-P at 100μg” value [7, 11] was 75%.

For `COC1C=COC2(C)Oc3c(C)c(O)c4c(c3C2=O)C2(C=C(NC(=O)C(C)=CC=CC(C)C(O)C(C)C(O)C(C)C(OC(C)=O)C1C)C4=O)OCC(=O)O2` (centres unmarked) [rifamycin O], the “% Control Activity of ME-DNA-P2 at 10μg” value [3] was 97%, the “% Control Activity of ME-DNA-P2 at 100μg” value [3] was 5% and the “% Control Activity of ME-DNA-P1 at 10μg” value [4] was 92%. For the same compound, the “% Control Activity of ME-DNA-P1 at 100μg” value [4] was 65%, the remaining activity at 10 µg [5, 8] was 77% and the remaining activity at 100 µg [5, 9] was 75%. The remaining activity at 10 µg [6, 8] was 93%, the remaining activity at 100 µg [6, 9] was 65% and the “% Control Activity of SSV-DNA-P at 5μg” value ([7]; 5μg, template Oligo dT.Poly rA) was 100%. The “% Control Activity of SSV-DNA-P at 10μg” value [7, 10] was 98% and the “% Control Activity of SSV-DNA-P at 100μg” value [7, 11] was 83%.

With `CO[C@H]1/C=C/O[C@@]2(C)Oc3c(C)c(O)c4c(O)c(cc(O)c4c3C2=O)NC(=O)/C(C)=C\C=C\[C@H](C)[C@H](O)[C@@H](C)[C@@H](O)[C@@H](C)[C@H](OC(C)=O)[C@@H]1C` [rifamycin SV] the “% Control Activity of ME-DNA-P2 at 5μg” value ([3]; 5μg) was 94%, the “% Control Activity of ME-DNA-P2 at 10μg” value [3] was 100% and the “% Control Activity of ME-DNA-P2 at 100μg” value [3] was 72%. The “% Control Activity of ME-DNA-P1 at 5μg” value ([4]; 5μg) was 91%, the “% Control Activity of ME-DNA-P1 at 10μg” value [4] was 95% and the “% Control Activity of ME-DNA-P1 at 100μg” value [4] was 105%. It also gave a remaining activity at 10 µg [5, 8] of 84%, a remaining activity at 100 µg [5, 9] of 106% and a remaining activity at 5 µg ([6]; 5μg, Single Stranded Calf-Thymus DNA, read-out: % Control Activity of ME-RNA-P2 at 5μg) of 89%. For the same compound, the remaining activity at 10 µg [6, 8] was 87%, the remaining activity at 100 µg [6, 9] was 82% and the “% Control Activity of SSV-DNA-P at 5μg” value ([7]; 5μg, template Oligo dT.Poly rA) was 105%. The “% Control Activity of SSV-DNA-P at 10μg” value [7, 10] was 75% and the “% Control Activity of SSV-DNA-P at 100μg” value [7, 11] was 61%.

With `CO[C@H]1/C=C/O[C@@]2(C)Oc3c(C)c(O)c4c(c3C2=O)C(=O)C=C(NC(=O)/C(C)=C\C=C\[C@H](C)[C@H](O)[C@@H](C)[C@@H](O)[C@@H](C)[C@H](OC(C)=O)[C@@H]1C)C4=O` [rifamycin S] the “% Control Activity of ME-DNA-P2 at 10μg” value [3] was 94%, the “% Control Activity of ME-DNA-P2 at 100μg” value [3] was 9% and the “% Control Activity of ME-DNA-P1 at 10μg” value [4] was 84%. The “% Control Activity of ME-DNA-P1 at 100μg” value [4] was 86%, the remaining activity at 10 µg [5, 8] was 102% and the remaining activity at 100 µg [5, 9] was 90%. For the same compound, the remaining activity at 10 µg [6, 8] was 78%, the remaining activity at 100 µg [6, 9] was 81% and the “% Control Activity of SSV-DNA-P at 5μg” value ([7]; 5μg, template Oligo dT.Poly rA) was 88%. For the same compound, the “% Control Activity of SSV-DNA-P at 10μg” value [7, 10] was 108% and the “% Control Activity of SSV-DNA-P at 100μg” value [7, 11] was 100%.
